This is an account of results in patent US10246463B2, “Hypoxia-inducible factor 1 (HIF-1) inhibitors” (The United States of America, as represented by the …, priority 2015, dated 2019).

Data set [1] has as its system P. falciparum D6 (chloroquine sensitive). Nature of the data set: Antimalarial activity, plasmodial LDH assay, D6 strain. It is filed as cell-based. Conditions: for IC50: Plasmodium falciparum, read-out: IC50 against D6. As for the experimental part: (§1) The antimalarial activity was determined against chloroquine sensitive (D6) and chloroquine resistant (W2) strains of P. falciparum by measuring plasmodial LDH (lactate dehydrogenase) activity according to the procedure of Makler and Hinrichs (Am. J. Trop. Med. Hyg. 1993, 48:205). A suspension of red blood cells infected with D6 or W2 strain of P. falciparum (200 μL, with 2% parasitemia and 2% hematocrit in RPMI 1640 medium supplemented with 10% human serum and 60 μg/mL Amikacin) was added to the wells of a 96-well plate containing 10 μL of serially diluted samples (plant extracts, column fractions or pure compounds). The plate was incubated at 37° C., for 72 h in a modular incubation chamber with 90% N2, 5% O2, and 5% CO2. Parasitic LDH activity was determined by mixing 20 μL of the incubation mixture with 100 μL of the Malstat reagent and incubating at room temperature for 30 min Twenty microliters of a 1:1 mixture of NBT/PES (nitro blue tetrazolium/phenazine ethosulfate) (Sigma, St. Louis, Mo.) was then added and the plate was further incubated in the dark for 1 h. The reaction was stopped by adding 100 μL of a 5% acetic acid solution and the absorbance was read at 650 nm. Artemisinin and chloroquine were included as the drug controls. IC50 values were computed from the dose response curves of growth inhibition.

In data set [2] the test system is P. falciparum W2 (chloroquine resistant). The experiment in a line: Antimalarial activity, plasmodial LDH assay, W2 strain. It is filed as cell-based. Conditions: for IC50: Plasmodium falciparum, read-out: IC50 against W2. Here is the method: as §1
Data set [3] deals with T1, p300 (CH1) / HIF-1α (C-TAD) interaction (Homo sapiens, UniProt Q09472+Q16665).
T1 construct: GST-p300-CH1 (aa 323-423); synthetic biotinylated HIF-1αC-TAD (aa 786-826; Peptide Protein Research Ltd., Fareham, UK)
T1 sequence (Q09472 323-423): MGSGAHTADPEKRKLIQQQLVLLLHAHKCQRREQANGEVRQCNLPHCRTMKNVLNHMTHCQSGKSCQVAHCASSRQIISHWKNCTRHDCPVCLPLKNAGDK
T1 sequence (Q16665 786-826): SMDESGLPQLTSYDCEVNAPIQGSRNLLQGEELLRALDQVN
The experiment in a line: p300 CH1 / HIF-1α C-TAD binding assay (DELFIA, europium anti-GST). As to conditions: for IC50: dose-response format of the screening assay. As for the experimental part: Binding of soluble CH1 to the immobilized C-TAD was measured by the fluorescence of a europium-tagged anti-GST antibody.
Bound GST-CH1 was detected using a europium-labeled antibody to GST (PerkinElmer Life Sciences). […] Plates were washed four times with TBST (50 mM Tris, 150 mM NaCl, 0.05% Tween 20, pH 8.0) buffer. […] After 2 h, plates were washed four times in TBST. DELFIA enhancement solution (PerkinElmer Life Sciences) was added and plates were placed on a rocker for 30 min, before reading with a Victor3 plate reader (PerkinElmer Life Sciences) or a Pherastar Plate Reader (BMG Labtech), using the europium setting under time-resolved fluorescence. Values were corrected for background and expressed as a percentage of controls (DMSO) to provide the percentage of CH1 binding.

Another data set in a line: Stability in NMR solvent. It is filed as physicochemical.
The test system of a further data set is NCI-60 cell line. Nature of the data set: NCI-60 cell line anticancer screen. It is filed as cell-based. As to conditions: standard initial concentration of 40 μM.
The subject of a further data set is 32 bromodomain proteins. The experiment in a line: commercial panel of 32 bromodomain proteins (DiscoverRx). It is filed as binding. From the text:
(§2) In an effort to evaluate a broader range of potential activities of interest, compound 1 was screened against a commercial panel of 456 protein kinase enzymes and 32 bromodomain proteins (DiscoverRx, San Diego, Calif.), and it had no activity against any of these targets.

Data set [4] is described as follows: pKa determination by UV-Vis analysis at varied pH. It is filed as physicochemical. As to conditions: aqueous buffers at varied pH, 0.1% DMSO, read-out: pKa of the titratable proton. As for the experimental part: The cuvettes were allowed to equilibrate for 1 h before a UV-Vis curve was obtained. The pKa for 1 was determined by fitting Δ abs at 394 and 440 nm to a polynomial curve, as described previously (Yapici et al., J. Am. Chem. Soc. 2015, 137:1073-1080).

Data set [5] has as its system 456 protein kinase enzymes. The experiment in a line: commercial panel of 456 protein kinase enzymes (DiscoverRx). The format is binding.
From the text: as §2

A further data set deals with HCT116 cells. Nature of the data set: CCK-8 cytotoxicity in HCT116 cells under hypoxic conditions. Conditions: 18 h treatment, hypoxic conditions (0.5% O2), FIG. 8. It is filed as cell-based. The source says:
Results are presented as the average cell viability number (% hypoxic control) of triplicate experiments ±S.E.M. (n=3-4).

The subject of data set [6] is HIF-1α activation in HCT116 cells. The experiment in a line: HRE luciferase reporter of HIF-1α activation in HCT116 cells under anoxic conditions. As to conditions: FIG. 7. It is filed as cell-based. Here is the method: Activation was monitored via a hypoxia response element (HRE) luciferase signal. When HIF-1α is activated, it results in an increased HRE luciferase signal. […] Data were analyzed using an ordinary one-way ANOVA with Dunnett's multiple comparisons test (reference group: DMSO.H). * P≤0.05, ** P≤0.01, *** P≤0.0001.

Setting [7] is: read-out: IC50, blocking binding of soluble CH1 to immobilized C-TAD.

Values after ≈ are worked out from the molar mass of the structure shown. Values joined by “and” are separate entries in the source; they are usually repeats but may differ in a detail not shown here. Equal values may be shown once. Read-outs that look alike come from different tables or passages of the source.

As to `CCN(CC)CCCC(C)Nc1ccnc2cc(Cl)ccc12` (stereo not drawn) [chloroquine, reference compound], the IC50 in data set [1] (D6, 72 h) stood at 0.0154 mg/L (≈ 0.0481 µM); in data set [2] (W2, 72 h), 0.161 mg/L (≈ 0.503 µM).

In the case of `COc1ccc(C2(c3nc(N)[nH]c3-c3ccc(O)cc3)N=C3N=CC=C4c5ccccc5N=C2N43)cc1` (stereo not drawn) [Eudistidine C, eudistidine C], the IC50 was around 75 µM in data set [3] (setting [7]); 1.7 mg/L (≈ 3.49 µM) in data set [1] (D6, growth inhibition, 72 h); 0.9 mg/L (≈ 1.85 µM) in [2] (W2, growth inhibition, 72 h). Moreover, the results for the “% growth of D6 strain of P. falciparum” value in data set [1] (528.89 ng/mL), in data set [1] (1586.67 ng/mL) and in data set [1] (4760 ng/mL) were 91%, 56% and 9%, respectively. The “% growth of W2 strain of P. falciparum” value in data set [2] (528.89 ng/mL) was 75%; in data set [2] (1586.67 ng/mL), 22%; in data set [2] (4760 ng/mL), 6%. Also, the “stability in DMSO-d6” value in the data set “Stability in NMR solvent” is on record as “somewhat unstable”.

Regarding `O=c1nc2nccc3c4ccccc4nc1N23` [Eudistidine B, eudistidine B], the “inhibition of CH1 (p300)/C-TAD (HIF-1α) interaction” value in [3] (at a high dose of 250 μM) is listed as “no inhibition”.

`O=C(O)c1ccc(C2(O)N=C3N=CC=C4c5ccccc5N=C2N43)cc1` (stereo not drawn) [EA-2]: the IC50 in data set [3] (read-out: IC50, CH1 (p300)/C-TAD (HIF-1α) interaction (converted)) is around 290 µM.

For `COc1ccc(C2(O)N=C3N=CC=C4c5ccccc5N=C2N43)cc1` (stereo not drawn) [Eudistidine A, eudistidine A], the “cytotoxic activity in NCI-60 screen” value with NCI-60 cell line is “no significant cytotoxic activity”. Moreover, in the data set with 32 bromodomain proteins, the “activity against 32 bromodomain proteins” value is on record as “no activity”. Besides, the pKa in data set [4] was 5.1 ± 0.1. The “activity against 456 protein kinase enzymes” value in [5] is recorded as “no activity”. Moreover, the “inhibition of HIF-1α binding to p300, comparison of salt forms and natural/synthetic material” value in data set [3] (FIGS. 5A-5E, 6A-6C, listed as natural eudistidine A, free base) was “similarly inhibit”. Moreover, the IC50 in [3] (setting [7]) is ~75 µM and 75 µM; in data set [1] (D6, growth inhibition, 72 h), 0.77 mg/L (≈ 2.33 µM); in [2] (W2, growth inhibition, 72 h), 0.58 mg/L (≈ 1.76 µM). In the data set on HCT116 cells, the “CCK-8 cytotoxicity/growth inhibitory activity” value was “only modest cytotoxicity/growth inhibitory activity”. The “% growth of D6 strain of P. falciparum” value worked out at 72% in data set [1] (528.89 ng/mL), 6% in [1] (1586.67 ng/mL) and 2% in [1] (4760 ng/mL). In addition, the “blocking of HIF-1α activation (HRE luciferase signal)” value in [6] is given as “block HIF-1α activation”. Further, the entries for the “% growth of W2 strain of P. falciparum” value in [2] (528.89 ng/mL), in data set [2] (1586.67 ng/mL) and in data set [2] (4760 ng/mL) were 55%, 1% and 1%, respectively.

Regarding `OC1(c2ccccc2)N=C2N=CC=C3c4ccccc4N=C1N32` (stereo not drawn) [EA-1], the “inhibition of CH1 (p300)/C-TAD (HIF-1α) interaction” value in [3] (even at high dose) is recorded as “no inhibition”.

For the compound `C[C@@H]1CC[C@H]2[C@@H](C)C(=O)O[C@@H]3O[C@@]4(C)CC[C@@H]1[C@]32OO4` [artemisinin, reference compound], the IC50 was 0.0072 mg/L (≈ 0.0255 µM) in data set [1] (D6, growth inhibition, 72 h) and 0.0041 mg/L (≈ 0.0145 µM) in data set [2] (W2, growth inhibition, 72 h).
